Assay results published in US6887873B2, “Triazine derivatives and their application as antitelomerase agents” (Aventis Pharma S.A., priority 2001, dated 2005).

Tests used:
[1] = test system: G-quadruplex of oligonucleotide GGGTTAGGGTTAGGGTTAGGG (3.5 repeats of the human telomereic motif); experiment: G-quadruplex stabilizing activity, fluorescence Tm (FAM+DABCYL oligonucleotide); assay type: binding
Method in brief: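 FAM/DABCYL-labelled telomeric oligonucleotide (0.2 μM strand) in 10 mM sodium cacodylate pH 7.6 with 0.1 M LiCl (or NaCl) was annealed, then incubated ≥1 h at 20 °C with compound at 1 μM final. Samples were heated 20→80 °C, with excitation at 470 nm and emission at 515/588 nm. Tm is the 515 nm emission midpoint.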

[2] = test system: human telomerease (HL60 cell extract); experiment: Antitelomerease activity: extension of oligonucleotide TS followed by PCR amplification, with HL60 extract; assay type: biochemical; conditions: read-out: TRAP IC50
Method in brief: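 HL60 CHAPS-lysate extract extends TS primer (15 min, 30 °C) with compound at 10, 1, 0.1 and 0.01 µM, followed by 30-cycle PCR with TS and CXext. Products resolved on 12% acrylamide and quantified; % inhibition versus enzyme control and blank, IC50 read from semilog plot.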

Row | SMILES | G4 delta Tm [1] [°C] | IC50 [2] [nM]
1 | Cc1cc(N(C)C)c2cc(Nc3nc(NCCCN(C)C)nc(Nc4ccc5nc(C)cc(N(C)C)c5c4)n3)ccc2n1 [Example 1, 2,4-bis(4-dimethylamino-2-methylquinolin-6-yl)amino-6-(3-dimethylaminopropyl)amino-[1,3,5]triazine] | 11.3 | 550
2 | Cc1cc(N)c2cc(Nc3nc(Nc4ccc5nc(C)cc(N)c5c4)nc(Nc4ccc5nc(C)cc(N)c5c4)n3)ccc2n1 [Example 2, 2,4,6-tris(4-amino-2-methylquinolin-6-yl)amino-[1,3,5]triazine] | 18 | 60
3 | Cc1cc(N)c2cc(Nc3nc(Nc4ccc5nc(C)cc(N(C)C)c5c4)nc(Nc4ccccc4Cl)n3)ccc2n1 [Example 3] | 5.5 | 2100
4 | Cc1cc(N)c2cc(Nc3nc(Nc4ccc(N5CCNCC5)cc4)nc(Nc4ccc5nc(C)cc(N)c5c4)n3)ccc2n1 [Example 15] | 2.7 | 190
5 | Cc1cc(N)c2cc(Nc3nc(Nc4ccc5nc(C)cc(N)c5c4)nc(NC4CN5CCC4CC5)n3)ccc2n1 (centres unmarked) [Example 17, 2,4-bis(4-amino-2-methylquinolin-6-yl)amino-6-(quinuclidin-3-yl)amino-[1,3,5]triazine] | 17.1 | 100
6 | Cc1cc(N(C)C)c2cc(Nc3nc(Nc4ccncc4)nc(Nc4ccc5nc(C)cc(N(C)C)c5c4)n3)ccc2n1 [Example 18] | 2.4 | 1200
7 | Cc1cc(N(C)C)c2cc(Nc3nc(Nc4ccc5nc(C)cc(N(C)C)c5c4)nc(C4CCN(C)CC4)n3)ccc2n1 [Example 19, 2,4-bis(4-dimethylamino-2-methylquinolin-6-yl)amino-6-(1-methylpiperidin-4-yl)-[1,3,5]triazine] | 3.5 | 530
8 | Cc1cc(N(C)C)c2cc(Nc3nc(Nc4ccc5nc(C)cc(N(C)C)c5c4)nc(N4CCN(C)CC4)n3)ccc2n1 [Example 20, 2,4-bis(4-dimethylamino-2-methylquinolin-6-yl)amino-6-(4-methylpiperazin-1-yl)-[1,3,5]triazine] | 6.4 | 440
9 | Cc1cc(N(C)C)c2cc(Nc3nc(NCc4ccncc4)nc(Nc4ccc5nc(C)cc(N(C)C)c5c4)n3)ccc2n1 [Example 27, 2,4-bis(4-dimethylamino-2-methylquinolin-6-yl)amino-6-(pyridin-4-yl)methylamino-[1,3,5]triazine] | 11.0 | 600
10 | CCN(CCNc1nc(Nc2ccc3nc(C)cc(N(C)C)c3c2)nc(Nc2ccc3nc(C)cc(N(C)C)c3c2)n1)c1cccc(C)c1 [Example 28] | 10.6 | 900
11 | Cc1cc(N)c2cc(Nc3nc(Nc4ccc5nc(C)cc(N)c5c4)nc(NC4CCN(Cc5ccccc5)C4)n3)ccc2n1 (centres unmarked) [Example 41] | 19 | 360
12 | Cc1cc(N)c2cc(Nc3nc(Nc4ccc5nc(C)cc(N)c5c4)nc(N4CCN(C5CCCC5)CC4)n3)ccc2n1 [Example 43] | 18 | 180
13 | Cc1cc(N)c2cc(Nc3nc(NCc4ccc([N+](C)(C)C)cc4)nc(Nc4ccc5nc(C)cc(N)c5c4)n3)ccc2n1 [Example 60] | 6 | 3000
14 | Cc1cc(N)c2cc(Nc3nc(Nc4ccc5nc(C)cc(N)c5c4)nc(N4CCN(C(=O)c5ccco5)CC4)n3)ccc2n1 [Example 68] | 8 | 300
15 | Cc1cc(N)c2cc(Nc3nc(Nc4ccc5nc(C)cc(N)c5c4)nc(N4CCN(C5CCCCCCC5)CC4)n3)ccc2n1 [Example 77] | 12.5 | 480
16 | Cc1cc(N)c2cc(Nc3nc(Nc4ccc5nc(C)cc(N)c5c4)nc(N4CCCC4c4cccnc4)n3)ccc2n1 (centres unmarked) [Example 86] | 6 | 200
17 | Cc1cc(N)c2cc(Nc3nc(Nc4ccc5nc(C)cc(N)c5c4)nc(N(Cc4ccccc4)C4CN5CCC4CC5)n3)ccc2n1 (centres unmarked) [Example 92] | 3.5 | 430
18 | Cc1cc(N)c2cc(Nc3nc(Nc4ccc5nc(C)cc(N)c5c4)nc(NC4CCN(Cc5ccccc5)CC4)n3)ccc2n1 [Example 93] | 8 | 370
19 | Cc1cc(N)c2cc(Nc3nc(Nc4ccc5nc(C)cc(N)c5c4)nc(Oc4ccccc4Cl)n3)ccc2n1 [Example 103] | 7 | 280
20 | COc1cccc(Oc2nc(Nc3ccc4nc(C)cc(N)c4c3)nc(Nc3ccc4nc(C)cc(N)c4c3)n2)c1 [Example 104] | 4.5 | 1200

Row | SMILES | G4 delta Tm [1] [°C] | IC50 [2] [nM]
21 | Cc1cc(N)c2cc(Nc3nc(Nc4ccc5nc(C)cc(N)c5c4)nc(OCCN(C)Cc4ccccc4)n3)ccc2n1 [Example 105] | 12 | 240
22 | Cc1cc(N(C)C)c2cc(Nc3nc(Nc4ccc5nc(C)cc(N(C)C)c5c4)nc(Oc4ccncc4)n3)ccc2n1 [Example 115, 2,4-bis(4-dimethylamino-2-methylquinolin-6-yl)amino-6-(pyridin-4-yl)oxy-[1,3,5]triazine] | 13 | 500
23 | Cc1cc(N)c2cc(Nc3nc(Nc4ccc5nc(C)cc(N)c5c4)nc(Sc4ccccc4Cl)n3)ccc2n1 [Example 118] | 3.5 | 1400
24 | Cc1cc(N)c2cc(Nc3nc(Nc4ccc5nc(C)cc(N)c5c4)nc(Sc4ccccn4)n3)ccc2n1 [Example 120] | 11.5 | 380
25 | COc1ccc(CSc2nc(Nc3ccc4nc(C)cc(N)c4c3)nc(Nc3ccc4nc(C)cc(N)c4c3)n2)cc1 [Example 124] | 3 | 900
26 | Cc1cc(N)c2cc(Nc3nc(Nc4ccc5nc(C)cc(N)c5c4)nc(Sc4ncccn4)n3)ccc2n1 [Example 126] | 19 | 670
27 | Cc1cc(C)nc(Sc2nc(Nc3ccc4nc(C)cc(N)c4c3)nc(Nc3ccc4nc(C)cc(N)c4c3)n2)n1 [Example 127] | 14 | 840
28 | Cc1cc(N)c2cc(Nc3nc(Nc4ccc5nc(C)cc(N)c5c4)nc(Sc4ccc5ccccc5n4)n3)ccc2n1 [Example 128, 2,4-bis(4-amino-2-methylquinolin-6-yl)amino-6-(quinolin-2-yl)thio-[1,3,5]triazine] | 15 | 390
29 | Cc1cc(N(C)C)c2cc(Nc3nc(Nc4ccc5nc(C)cc(N(C)C)c5c4)nc(N4CCCN(C)CC4)n3)ccc2n1 [Example 135, 2,4-bis(4-dimethylamino-2-methylquinolin-6-yl)amino-6-(1-methylhomopiperazin-4-yl)-[1,3,5]triazine] | 20 | 400
30 | Cc1cc(N(C)C)c2cc(Nc3nc(Nc4ccc5nc(C)cc(N(C)C)c5c4)nc(N4CCN(CCCN(C)C)CC4)n3)ccc2n1 [Example 136, 2,4-bis(4-dimethylamino-2-methylquinolin-6-yl)amino-6-[1-(3-dimethylaminopropyl)piperazin-4-yl]-[1,3,5]triazine] | 20.5 | 120
31 | CCCN(CCC)CCN1CCN(c2nc(Nc3ccc4nc(C)cc(N(C)C)c4c3)nc(Nc3ccc4nc(C)cc(N(C)C)c4c3)n2)CC1 [Example 137, 2,4-bis(4-dimethylamino-2-methylquinolin-6-yl)amino-6-[1-(2-dipropylaminoethyl)piperazin-4-yl]-[1,3,5]triazine] | 16 | 1000
32 | Cc1cc(N(C)C)c2cc(Nc3nc(Nc4ccc5nc(C)cc(N(C)C)c5c4)nc(N(C)C4CCN(C)CC4)n3)ccc2n1 [Example 138, 2,4-bis(4-dimethylamino-2-methylquinolin-6-yl)amino-6-[N-(1-methylpiperidin-4-yl)-N-methylamino]-[1,3,5]triazine] | 16 | 500
33 | Cc1cc(N(C)C)c2cc(Nc3nc(Nc4ccc5nc(C)cc(N(C)C)c5c4)nc(N4CCCN(CCCN5CCCC5)CC4)n3)ccc2n1 [Example 139] | 18.5 | 600
34 | Cc1cc(N(C)C)c2cc(Nc3nc(NCCN4CCN(Cc5ccccc5)CC4)nc(Nc4ccc5nc(C)cc(N(C)C)c5c4)n3)ccc2n1 [Example 140] | 5.5 | 1000
35 | Cc1cc(N(C)C)c2cc(Nc3nc(Nc4ccc5nc(C)cc(N(C)C)c5c4)nc(N4CCN(CCOCCO)CC4)n3)ccc2n1 [Example 141, 2,4-bis(4-dimethylamino-2-methylquinolin-6-yl)amino-6-{[1-2-(2-hydroxyethyl)oxyethyl]piperazin-4-yl}-[1,3,5]triazine] | 7 | 900
36 | Cc1cc(N(C)C)c2cc(Nc3nc(NCC[N+](C)(C)C)nc(Nc4ccc5nc(C)cc(N(C)C)c5c4)n3)ccc2n1 [Example 142] | 9.5 | 1000
37 | Cc1cc(N(C)C)c2cc(Nc3nc(Nc4ccc5nc(C)cc(N(C)C)c5c4)nc(N4CCN(C5CCCC5)CC4)n3)ccc2n1 [Example 143] | 13 | 400
38 | Cc1cc(N(C)C)c2cc(Nc3nc(Nc4ccc5nc(C)cc(N(C)C)c5c4)nc(N4CCN(c5ccncc5)CC4)n3)ccc2n1 [Example 144, 2,4-bis(4-dimethylamino-2-methylquinolin-6-yl)amino-6-[1-(pyridin-4-yl)piperazin-4-yl]-[1,3,5]triazine] | 22.5 | 400
39 | Cc1cc(N(C)C)c2cc(Nc3nc(NCc4ccncc4)nc(Nc4ccc5nc(C)cc(N(C)C)c5c4)n3)ccc2n1 [Example 145] | 5 | 1000
40 | CCN(CCN(C)C)c1nc(Nc2ccc3nc(C)cc(N(C)C)c3c2)nc(Nc2ccc3nc(C)cc(N(C)C)c3c2)n1 [Example 146] | 6 | 600
